How the values were obtained:
[1] = target: T1, endothelin converting enzyme (Bos taurus, UniProt P42891); assay: Zones of enzyme inhibition in Sephacryl gel with fluorogenic FRET substrate, fluorescence imaging; assay type: biochemical; settings: beads impregnated with 10mM solution in DMSO; gel left at ambient temperature overnight; FRET substrate 4micromolar
T1 construct: Samples of endothelin converting enzyme (ECE) were obtained essentially according to the method of Okada et al; endogenous in cells; By own knowledge of Okada et al. 1990: membrane fraction of cultured bovine endothelial cells
T1 sequence (P42891 1-754): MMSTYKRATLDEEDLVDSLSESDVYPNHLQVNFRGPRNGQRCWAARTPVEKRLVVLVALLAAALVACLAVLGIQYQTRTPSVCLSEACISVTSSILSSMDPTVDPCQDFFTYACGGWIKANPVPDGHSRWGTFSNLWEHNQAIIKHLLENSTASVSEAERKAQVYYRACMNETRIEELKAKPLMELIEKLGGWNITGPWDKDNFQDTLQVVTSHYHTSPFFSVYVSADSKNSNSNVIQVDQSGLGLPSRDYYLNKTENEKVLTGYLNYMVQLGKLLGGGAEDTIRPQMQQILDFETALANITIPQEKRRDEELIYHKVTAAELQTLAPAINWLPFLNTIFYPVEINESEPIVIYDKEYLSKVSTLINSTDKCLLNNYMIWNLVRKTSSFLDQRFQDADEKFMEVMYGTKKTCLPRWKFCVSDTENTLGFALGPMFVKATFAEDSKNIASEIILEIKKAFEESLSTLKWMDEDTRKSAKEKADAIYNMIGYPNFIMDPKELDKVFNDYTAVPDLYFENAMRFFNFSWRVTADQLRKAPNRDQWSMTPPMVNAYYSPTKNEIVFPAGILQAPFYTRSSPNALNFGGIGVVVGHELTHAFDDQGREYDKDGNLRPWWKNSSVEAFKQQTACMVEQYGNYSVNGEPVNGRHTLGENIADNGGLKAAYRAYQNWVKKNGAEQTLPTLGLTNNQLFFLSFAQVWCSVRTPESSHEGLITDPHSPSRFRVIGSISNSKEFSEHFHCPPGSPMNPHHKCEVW
Method: In this example, polystyrene beads are impregnated with a compound (phosphoramidon) to simulate the situation that would arise when a compound is made on a bead and then released prior to contacting the assay medium. The assay medium comprises a Sephacryl™ gel containing an enzyme, endothelin converting enzyme, and a fluorogenic FRET substrate, following by fluorescence imaging of the gel.
Ca 300 beads as used in Example 1 were suspended in a solution of phosphoramidon (10mM) in DMSO, allowed to swell and washed briefly in DMSO.
The FRET substrate, was derived from that of human big endothelin-1, 16-37, with Glu-26 changed to Cys: [formula] Fluorescein had been attached to Cys-26 and tetramethylrhodamine attached to the N-terminus, such that cleavage of the substrate removes the quenching effect of the tetramethylrhodamine resulting in an increase of fluorescein fluorescence.
The assay phase was assembled as follows. Sephacryl™ S-500 gel was suspended in 0.2M Tris/HCl pH 7.2 containing 0.5% BSA and then washed with buffer alone. To this gel suspension (24.5ml) was added the FRET substrate (3ml, 4micromolar final) and ECE (2.6 microlitres). After gentle mixing, the gel was poured into the polystyrene lid of a microtitre plate, allowed to settle and excess liquid gently removed with a tissue. […] The gel was then imaged on a fluorescence imager (FluorImager, Molecular Dynamics).

endothelin receptor = assay: IC-50 determination by conventional filtration techniques (Holland et al.); assay type: binding
[2] = test system: porcine endothelin receptor; assay: Zone screening scintillation proximity assay in agarose gel, [125-I]Endothelin binding to receptor-coated SPA microspheres; settings: one bead per well
Method: Agarose (Sigma) was suspended in distilled water and heated to boiling point in a microwave to melt, then cooled to 50 deg. C. Microspheres coated with the porcine endothelin receptor (1 vial, SPA, Amersham) were re-constituted in assay buffer (50 mM Tris.HCl, 1 mM EDTA, 0.1% BSA, 10 mM MgC12, pH 6.4 (25 ml). This suspension (10 ml) was then added to the cooled (50 deg. C) agarose (10 ml), vortexed mixed and 0.1 ml portions immediately added to wells of a white microtitre plate (Picoplate-96, Packard).
Test compounds were prepared as follows. Polystyrene beads (as used in example 1) were suspended in DMSO solutions of endothelin-1 (Cambridge Research Biochemicals) or various test compounds (T1 - T4) at various concentrations (see Table 1) for about 2 hours. After a spin (1 min.) on a micro-fuge, the beads were washed briefly in ethanol. Single beads were then transfered with forceps into the centre of the wells containing the SPA/agarose mix, one bead per well.
[125-I]Endothelin (Amersham) was diluted into the assay buffer to give a 180 pM solution. 6 ml of this was added to 6 ml of 1% agarose (at 50 deg. C) and vortexed mixed. 0.05 ml aliquots were then immediately added to each well. The plate was then sealed (Topseal-S, Packard) and counted at intervals (Top Count, Packard) for 2 minutes per well. By reference to a total control (no compound present) and non-specific binding control (40 micromolar endothelin-1, measured after 8 hours incubation), the per cent inhibition caused by each compound as it diffused away from the bead was calculated.
This inhibition is related to the potency of the compound. […]

zones of enzyme inhibition in gel (fluorescence image) [1]	IC50 (endothelin receptor) [nM]	inhibition (%) ([2]; readings at 2 hours, bead soaked in 1.25 micromolar DMSO solution)	inhibition (%) ([2]; readings at 2 hours, bead soaked in 2.5 micromolar DMSO solution)	inhibition (%) ([2]; readings at 2 hours, bead soaked in 5 micromolar DMSO solution)	inhibition (%) ([2]; readings at 2 hours, bead soaked in 10 micromolar DMSO solution)	inhibition (%) ([2]; readings at 2 hours, bead soaked in 20 micromolar DMSO solution)	inhibition (%) ([2]; readings at 2 hours, bead soaked in 40 micromolar DMSO solution)	inhibition (%) ([2]; readings at 8 hours, bead soaked in 1.25 micromolar DMSO solution)	inhibition (%) ([2]; readings at 8 hours, bead soaked in 2.5 micromolar DMSO solution)	inhibition (%) ([2]; readings at 8 hours, bead soaked in 5 micromolar DMSO solution)	inhibition (%) ([2]; readings at 8 hours, bead soaked in 10 micromolar DMSO solution)	inhibition (%) ([2]; readings at 8 hours, bead soaked in 20 micromolar DMSO solution)	inhibition (%) ([2]; readings at 8 hours, bead soaked in 40 micromolar DMSO solution)	Compound
zones of reduced fluorescence	–	–	–	–	–	–	–	–	–	–	–	–	–	CC(C)C[C@H](NP(=O)(O)O[C@@H]1O[C@@H](C)[C@H](O)[C@@H](O)[C@H]1O)C(=O)N[C@@H](Cc1c[nH]c2ccccc12)C(=O)O [phosphoramidon]
–	0.18	-0.6	12.3	19.5	36.3	85.2	(100) %	6.5	14.0	18.2	40.0	47.5	(100) %	endothelin-1
